The values that follow come from article PMC8950663, “Cyanobacteria Secondary Metabolites as Biotechnological Ingredients in Natural Anti-Aging Cosmetics: Potential to Overcome Hyperpigmentation, Loss of Skin Density and UV Radiation-Deleterious Effects” (Marine Drugs, 2022).

Broadly, the IC50 is the concentration that inhibits the measured activity by half. Read a high IC50 as a need for much substance.

The assay has as its target T1, hyaluronidase (HAase).
T1 construct: gene SPAM1
Nature of the assay: colorimetric DMAB end-point assay of hyaluronic acid degradation, […] nm. It counts as biochemical. The following applies: hyaluronic acid substrate (0.7 mg/mL stock), 37 °C, 30 min; positive control.

With `O=C(O)c1cc(=O)c2c(OCC(O)COc3cccc4oc(C(=O)O)cc(=O)c34)cccc2o1` [di-sodium cromoglicate], the IC50 came out at 1105 µg/mL.
